These are literature values, as cited in patent US8697660B2, “Compounds and compositions for treating infection” (International Patent Holdings LLC, priority 2011, dated 2014).

The data set relates to HIV-1.

Take Prunellin: the “minimum inhibition concentration against HIV-1 in vitro” value was 2.2 µg/mL.
